Values of other authors, collected in patent EP0413839A1, “GHRH analogs” (The Administrators of The Tulane Educational Fund, priority 1989, dated 1991).
No end group written: not given here.

Conditions: percent of the potency of hGRF

Row | Substance | potency of hGRF
1 | hGRF(1-29)OH | 12.6%
2 | hGRF(1-37)-NH₂ (YADAIFTNSYRKVLGQLSARKLLQDIMSRQQGESNQE-NH2; UniProt P01286 32-68, looked up, fragment) [fragment of human growth hormone releasing factor terminated with an amide group] | at least 50%
3 | hGRF(1-23)-NH₂ (YADAIFTNSYRKVLGQLSARKLL-NH2; UniProt P01286 32-54, looked up, fragment) [shortened hGRF fragment with amidated C-terminus] | 0.24%
4 | hGRF(1-27)-NH₂ (YADAIFTNSYRKVLGQLSARKLLQDIM-NH2; UniProt P01286 32-58, looked up, fragment) [shortened hGRF fragment with amidated C-terminus] | 1.12%
